US8663660B2, “Polymerized micelles” (Les Laboratories Servier, priority 2008, dated 2014)
Values after ≈ are worked out from the molar mass of the structure shown.

What was measured:
[1] = Critical micellar concentration; format: physicochemical
Description: “Self-assembly” of amphiphilic molecules is understood to be the spontaneous organisation, into spherical micelles, of amphiphilic molecules in aqueous media at a concentration greater than the critical micellar concentration or CMC.
The critical micellar concentration of the amphiphilic molecule II-4 as described hereinbefore was determined in experiments to be 0.082 mg/ml.

physchem = conditions: for Molar level of inclusion: polymerised micelles at 10 mg/ml, 50° C. 12 hours, molar ratio medicament/(medicament + amphiphilic II-4) × 100; for Level of inclusion by weight: polymerised micelles of amphiphilic II-4 at 10 mg/ml, stirring at 50° C. for 12 hours, weight ratio medicament/(medicament + transporter) × 100; for Number of molecules per micelle: polymerised micelles, molar ratio medicament/amphiphilic II-4 × 100 amphiphilics per micelle
Description: At the end of the inclusion sequence, the solution is filtered in order to remove the excess of non-included active ingredient.
The level of inclusion of S39625 is determined by the reverse-phase HPLC method. This technique is based on the difference in the interaction of molecules between the mobile phase and the stationary phase. This difference affects the retention times for those molecules. For given HPLC conditions, the same molecule always has the same retention time. The reverse-phase HPLC conditions for determination of the level of inclusion of S39625 are an RP-18^c grafted silica column for the stationary phase and a gradient of water and of acetonitrile from 5% to 100% for the mobile phase. Detection of the S39625 at the column exit is carried out by a UV detector at a wavelength of 385 nm. A standard curve for S39625 in acetonitrile was produced by reverse HPLC.

[2] = Solubility of the active ingredient molecule in water; format: physicochemical; conditions: free molecule, without micelles

Row | Compound | Critical micellar concentration [1] [mg/mL] | solubility at 12 h (physchem; 50 °C, aqueous with cosolvent or surfactant or cyclodextrin, thermodynamic from solid) [µg/mL] | Level of inclusion by weight (physchem; listed as paclitaxel) [%] | Molar level of inclusion (physchem) [%] | Level of inclusion by weight (physchem) [%] | Number of molecules per micelle (physchem) | Solubility of the molecule in water [2] [µg/mL] | Solubility in water (physchem) [µg/mL]
1 | c1cc2ccc3cccc4ccc(c1)c2c34 [Pyrene, pyrene, reference compound] | – | – | – | 63 | 34 | 167 | – | –
2 | CCC1(O)C(=O)Cc2c1cc1n(c2=O)Cc2c-1nc1cc3c(cc1c2C1CCC1)OCO3 (stereo not shown) [S 39625] | – | – | – | 56 | 48 | 125 | 0.09 | 9000 (≈ 20.9 mM)
3 | CN(C)CC[C@H](CSc1ccccc1)Nc1ccc(S(=O)(=O)NC(=O)c2ccc3c(c2)CC[C@@H]2CN(Cc4ccccc4-c4ccc(Cl)cc4)CCN32)cc1[N+](=O)[O-] [S 44563] | – | – | – | 36 | 45 | 56 | 2.00 | 8300 (≈ 9.89 mM)

Further lines, with some results ahead:

Row | Critical micellar concentration [1] [mg/mL] | solubility at 12 h (physchem; 50 °C, aqueous with cosolvent or surfactant or cyclodextrin, thermodynamic from solid) [µg/mL] | Level of inclusion by weight (physchem; listed as paclitaxel) [%] | Compound | Molar level of inclusion (physchem) [%] | Level of inclusion by weight (physchem) [%] | Number of molecules per micelle (physchem) | Solubility of the molecule in water [2] [µg/mL] | Solubility in water (physchem) [µg/mL]
4 | 0.082 | – | – | CCCC#CC#CCCC(=O)NCCCCC(C(=O)O)N(CC(=O)O)CC(=O)O (stereo not shown) [II-4] | – | – | – | – | –
5 | – | 4550 (≈ 5.33 mM) | 33 | CC(=O)O[C@H]1C(=O)[C@@]2(C)[C@H]([C@H](OC(=O)c3ccccc3)[C@]3(O)C[C@H](OC(=O)[C@H](O)[C@@H](NC(=O)c4ccccc4)c4ccccc4)C(C)=C1C3(C)C)[C@]1(OC(C)=O)CO[C@@H]1C[C@@H]2O [Paclitaxel, paclitaxel, reference compound] | 25 | 31 | 33 | – | –
